# Assay results published in ChEMBL document CHEMBL3797055, “Glabridin-chalcone hybrid molecules: drug resistance reversal agent against clinical isolates of methicillin-resistant Staphylococcus aureus” (Medchemcomm, 2016).
# Legend:
# [1] = system: Staphylococcus aureus; assay: Potentiation of norfloxacin-induced antibacterial activity against clinical isolates of methicillin-resistant Staphylococcus aureus ST2071 assessed as reduction in norfloxacin MIC by checkerboard assay relative to control; type: functional
# [2] = system: Staphylococcus aureus; assay: Potentiation of norfloxacin-induced antibacterial activity against clinical isolates of methicillin-resistant Staphylococcus aureus P4629 assessed as reduction in norfloxacin MIC by checkerboard assay relative to control; type: functional
# [3] = system: Staphylococcus aureus; assay: Potentiation of norfloxacin-induced antibacterial activity against clinical isolates of methicillin-resistant Staphylococcus aureus P4423 assessed as reduction in norfloxacin MIC by checkerboard assay relative to control; type: functional
# [4] = system: Staphylococcus aureus; assay: Potentiation of norfloxacin-induced antibacterial activity against clinical isolates of methicillin-resistant Staphylococcus aureus ST10760 assessed as reduction in norfloxacin MIC by checkerboard assay relative to control; type: functional
# [5] = system: Staphylococcus aureus; assay: Potentiation of norfloxacin-induced antibacterial activity against clinical isolates of methicillin-resistant Staphylococcus aureus ST10342 assessed as reduction in norfloxacin MIC by checkerboard assay relative to control; type: functional
# [6] = system: Staphylococcus aureus; assay: Potentiation of norfloxacin-induced antibacterial activity against clinical isolates of methicillin-resistant Staphylococcus aureus P4650 assessed as reduction in norfloxacin MIC by checkerboard assay relative to control; type: functional
# [7] = system: Staphylococcus aureus; assay: Ratio of MIC for clinical isolates of methicillin-resistant Staphylococcus aureus ST2071 to MIC for clinical isolates of methicillin-resistant Staphylococcus aureus ST2071 in presence of norfloxacin; type: functional
# [8] = system: Staphylococcus aureus; assay: Ratio of MIC for clinical isolates of methicillin-resistant Staphylococcus aureus P4629 to MIC for clinical isolates of methicillin-resistant Staphylococcus aureus P4629 in presence of norfloxacin; type: functional
# [9] = system: Staphylococcus aureus; assay: Ratio of MIC for clinical isolates of methicillin-resistant Staphylococcus aureus P4423 to MIC for clinical isolates of methicillin-resistant Staphylococcus aureus P4423 in presence of norfloxacin; type: functional
# [10] = system: Staphylococcus aureus; assay: Ratio of MIC for clinical isolates of methicillin-resistant Staphylococcus aureus ST10760 to MIC for clinical isolates of methicillin-resistant Staphylococcus aureus ST10760 in presence of norfloxacin; type: functional
# [11] = system: Staphylococcus aureus; assay: Ratio of MIC for clinical isolates of methicillin-resistant Staphylococcus aureus ST10342 to MIC for clinical isolates of methicillin-resistant Staphylococcus aureus ST10342 in presence of norfloxacin; type: functional
# [12] = system: Staphylococcus aureus; assay: Ratio of MIC for clinical isolates of methicillin-resistant Staphylococcus aureus P4650 to MIC for clinical isolates of methicillin-resistant Staphylococcus aureus P4650 in presence of norfloxacin; type: functional
# [13] = system: Staphylococcus aureus; assay: Bactericidal activity against clinical isolates of methicillin-resistant Staphylococcus aureus ST2071 assessed as reduction in viability at MIC after 24 hrs by time kill kinetic analysis relative to control; type: functional
# [14] = system: Staphylococcus aureus; assay: Bactericidal activity against clinical isolates of methicillin-resistant Staphylococcus aureus ST2071 assessed as reduction in viability at 0.5 MIC after 24 hrs by time kill kinetic analysis relative to control; type: functional
# [15] = system: Staphylococcus aureus; assay: Bactericidal activity against clinical isolates of methicillin-resistant Staphylococcus aureus ST2071 assessed as reduction in viability at 0.5 MIC after 24 hrs by time kill kinetic analysis in presence of norfloxacin relative to control; type: functional
# [16] = system: Staphylococcus aureus; assay: Antibacterial activity against Staphylococcus aureus MTCC 96 infected in ip dosed Swiss mouse assessed as reduction in bacterial load in blood administered qd for 7 days post infection measured 24 hrs after last dose by plate counting analysis; type: functional, organism-based
# [17] = system: Staphylococcus aureus; assay: Antibacterial activity against Staphylococcus aureus MTCC 96 infected in ip dosed Swiss mouse assessed as reduction in bacterial load in liver administered qd for 7 days post infection measured 24 hrs after last dose by plate counting analysis; type: functional, organism-based
# [18] = system: Staphylococcus aureus; assay: Antibacterial activity against Staphylococcus aureus MTCC 96 infected in ip dosed Swiss mouse assessed as reduction in bacterial load in spleen administered qd for 7 days post infection measured 24 hrs after last dose by plate counting analysis; type: functional, organism-based
# [19] = system: Staphylococcus aureus; assay: Antibacterial activity against Staphylococcus aureus MTCC 96 infected in ip dosed Swiss mouse assessed as reduction in bacterial load in lung administered qd for 7 days post infection measured 24 hrs after last dose by plate counting analysis; type: functional, organism-based
# [20] = system: Staphylococcus aureus; assay: Antibacterial activity against Staphylococcus aureus MTCC 96 infected in ip dosed Swiss mouse assessed as reduction in bacterial load in kidney administered qd for 7 days post infection measured 24 hrs after last dose by plate counting analysis; type: functional, organism-based
# [21] = system: Mus musculus; assay: Toxicity in Swiss mouse infected with Staphylococcus aureus MTCC 96 assessed as mortality at 12.5 to 100 mg/kg, ip qd for 7 days post infection; type: organism-based; details: in vivo, 168 h
# [22] = system: Mus musculus; assay: Toxicity in Swiss mouse infected with Staphylococcus aureus MTCC 96 assessed as morbidity at 12.5 to 100 mg/kg, ip qd for 7 days post infection; type: organism-based; details: in vivo, 168 h
# [23] = system: Staphylococcus aureus; assay: Antibacterial activity against Staphylococcus aureus MTCC 96 by broth microdilution assay; type: functional
# [24] = system: Staphylococcus aureus; assay: Antibacterial activity against clinical isolates of methicillin-resistant Staphylococcus aureus ST2071 by broth microdilution assay; type: functional
# [25] = system: Staphylococcus aureus; assay: Antibacterial activity against clinical isolates of methicillin-resistant Staphylococcus aureus P4629 by broth microdilution assay; type: functional
# [26] = system: Staphylococcus aureus; assay: Antibacterial activity against clinical isolates of methicillin-resistant Staphylococcus aureus P4423 by broth microdilution assay; type: functional
# [27] = system: Staphylococcus aureus; assay: Antibacterial activity against clinical isolates of methicillin-resistant Staphylococcus aureus ST10760 by broth microdilution assay; type: functional
# [28] = system: Staphylococcus aureus; assay: Antibacterial activity against clinical isolates of methicillin-resistant Staphylococcus aureus ST10342 by broth microdilution assay; type: functional
# [29] = system: Staphylococcus aureus; assay: Antibacterial activity against clinical isolates of methicillin-resistant Staphylococcus aureus P4650 by broth microdilution assay; type: functional
# [30] = system: Staphylococcus aureus; assay: Potentiation of norfloxacin-induced antibacterial activity against clinical isolates of methicillin-resistant Staphylococcus aureus ST2071 assessed as norfloxacin MIC by checkerboard assay; type: functional
# [31] = system: Staphylococcus aureus; assay: Potentiation of norfloxacin-induced antibacterial activity against clinical isolates of methicillin-resistant Staphylococcus aureus P4629 assessed as norfloxacin MIC by checkerboard assay; type: functional
# [32] = system: Staphylococcus aureus; assay: Potentiation of norfloxacin-induced antibacterial activity against clinical isolates of methicillin-resistant Staphylococcus aureus P4423 assessed as norfloxacin MIC by checkerboard assay; type: functional
# [33] = system: Staphylococcus aureus; assay: Potentiation of norfloxacin-induced antibacterial activity against clinical isolates of methicillin-resistant Staphylococcus aureus ST10760 assessed as norfloxacin MIC by checkerboard assay; type: functional
# [34] = system: Staphylococcus aureus; assay: Potentiation of norfloxacin-induced antibacterial activity against clinical isolates of methicillin-resistant Staphylococcus aureus ST10342 assessed as norfloxacin MIC by checkerboard assay; type: functional
# [35] = system: Staphylococcus aureus; assay: Potentiation of norfloxacin-induced antibacterial activity against clinical isolates of methicillin-resistant Staphylococcus aureus P4650 assessed as norfloxacin MIC by checkerboard assay; type: functional
# [36] = system: Staphylococcus aureus; assay: Antibacterial activity against clinical isolates of methicillin-resistant Staphylococcus aureus ST2071 by checkerboard assay in presence of norfloxacin; type: functional
# [37] = system: Staphylococcus aureus; assay: Antibacterial activity against clinical isolates of methicillin-resistant Staphylococcus aureus P4629 by checkerboard assay in presence of norfloxacin; type: functional
# [38] = system: Staphylococcus aureus; assay: Antibacterial activity against clinical isolates of methicillin-resistant Staphylococcus aureus P4423 by checkerboard assay in presence of norfloxacin; type: functional
# [39] = system: Staphylococcus aureus; assay: Antibacterial activity against clinical isolates of methicillin-resistant Staphylococcus aureus ST10760 by checkerboard assay in presence of norfloxacin; type: functional
# [40] = system: Staphylococcus aureus; assay: Antibacterial activity against clinical isolates of methicillin-resistant Staphylococcus aureus ST10342 by checkerboard assay in presence of norfloxacin; type: functional
# [41] = system: Staphylococcus aureus; assay: Antibacterial activity against clinical isolates of methicillin-resistant Staphylococcus aureus P4650 by checkerboard assay in presence of norfloxacin; type: functional
smiles,measurement,setting,value
COc1cc(OC)c([C@@H]2COc3c(cc(/C=C/C(=O)c4ccco4)c4c3C=CC(C)(C)O4)C2)cc1/C=C/C(=O)c1ccco1,fold change (FC),[1],16
same,fold change (FC),[2],16
same,fold change (FC),[3],8
same,fold change (FC),[4],8
same,fold change (FC),[5],8
same,fold change (FC),[6],8
same,Ratio,[7],<=4
same,Ratio,[8],<=4
same,Ratio,[9],<=4
same,Ratio,[10],<=4
same,Ratio,[11],<=4
same,Ratio,[12],<=4
same,fold change (FC),[13],2
same,fold change (FC),[14],<=1.52
same,fold change (FC),[15],<16
same,Activity,[16],Dose-dependent effect
same,Activity,[17],Dose-dependent effect
same,Activity,[18],Dose-dependent effect
same,Activity,[19],Dose-dependent effect
same,Activity,[20],Dose-dependent effect
same,Activity,[21],Non-toxic
same,Activity,[22],Non-toxic
same,MIC,[23],25 µg/mL
same,MIC,[24],50 µg/mL
same,MIC,[25],25 µg/mL
same,MIC,[26],50 µg/mL
same,MIC,[27],50 µg/mL
same,MIC,[28],50 µg/mL
same,MIC,[29],25 µg/mL
same,MIC,[30],31.2 µg/mL
same,MIC,[31],31.2 µg/mL
same,MIC,[32],31.2 µg/mL
same,MIC,[33],62.5 µg/mL
same,MIC,[34],31.2 µg/mL
same,MIC,[35],31.2 µg/mL
same,fractional inhibitory concentration index (FICI),[36],0.312
same,fractional inhibitory concentration index (FICI),[37],0.312
same,fractional inhibitory concentration index (FICI),[38],0.375
same,fractional inhibitory concentration index (FICI),[39],0.375
same,fractional inhibitory concentration index (FICI),[40],0.375
same,fractional inhibitory concentration index (FICI),[41],0.375
COc1ccc([C@@H]2COc3c(cc(/C=C/C(=O)c4ccc(OC)c(OC)c4)c4c3C=CC(C)(C)O4)C2)c(OC)c1,fold change (FC),[1],4
same,fold change (FC),[2],8
same,fold change (FC),[3],4
same,fold change (FC),[4],4
same,fold change (FC),[5],8
same,fold change (FC),[6],4
same,Ratio,[7],<=4
same,Ratio,[8],<=4
same,Ratio,[11],<=4
same,Ratio,[12],<=4
same,fold change (FC),[13],2
same,fold change (FC),[14],<=1.52
same,fold change (FC),[15],<=4
same,MIC,[23],25 µg/mL
same,MIC,[24],50 µg/mL
same,MIC,[25],50 µg/mL
same,MIC,[26],50 µg/mL
same,MIC,[27],50 µg/mL
same,MIC,[28],50 µg/mL
same,MIC,[29],50 µg/mL
same,MIC,[30],125 µg/mL
same,MIC,[31],62.5 µg/mL
same,MIC,[32],62.5 µg/mL
same,MIC,[33],125 µg/mL
same,MIC,[34],31.2 µg/mL
same,MIC,[35],62.5 µg/mL
same,fractional inhibitory concentration index (FICI),[36],0.5
same,fractional inhibitory concentration index (FICI),[37],0.375
same,fractional inhibitory concentration index (FICI),[38],0.75
same,fractional inhibitory concentration index (FICI),[39],0.75
same,fractional inhibitory concentration index (FICI),[40],0.375
same,fractional inhibitory concentration index (FICI),[41],0.5
